The source of these data is patent publication US5880258A (dated 1999).

In the test the target is thrombin (Homo sapiens, UniProt P00734). The test is described as follows: anti-thrombin activity; clotting assay (coagulation time with fibrinogen as substrate). Format: biochemical. Details: 100 μl of human-thrombin prepared at 10 NIH units/ml in aforesaid buffer. The following applies: for IC50: concentration corresponding to 50 thrombin units, human-thrombin 10 NIH units/ml, human-fibrinogen 6 mg/ml, read-out: 50% Inhibition Concentration (converted); for Potency: calculated using the definition that HV-1 (54-65) potency is 1. The method, then:
Measurement of anti-thrombin activity was done by looking at anti-coagulant activity as an index using fibrinogen as the substrate. That is, the compounds were dossolved in 200 μl of 0.1 mM Tris-HCl buffer (pH7.5) containing 0.1% polyethyleneglycol-6000, 100 μl of human-thrombin prepared at 10 NIH units/ml in aforesaid buffer, were added 200 μl of human-fibrinogen (Sigma) prepared at 6 mg/ml in aforesaid tris-hydrochloride buffer were added, and the coagulation time of the reaction mixtures were measured. For measuring of coagulation times, coagulation time analyzer (Amelung KC10A) was used. Obtained values were converted into units by using a previously prepared thrombin standard curve. Graphs were prepared by plotting the converted values on the vertical axis, and the concentrations of the compounds on the horizontal axis. In the graphs, the thrombin unit was defined as 100 at a compound concentration of 0. The concentration of compounds corresponding to 50 units were defined as 50% inhibitory concentrations of compounds.

*1 amine or outer side, *2 acyl side, *3 side chain or, on linkers, in order; H or OH if unused. Where a SMILES comes first, the peptide text is derived from it. [ ]: non-standard residue; d: D form. The star is where a group is joined. sY = N[C@@H](Cc1ccc(OS(=O)(=O)O)cc1)C(=O)O; X2 = CC(C)C[C@H](N*)C(=O)NP(=O)(O)O; Asu = N[C@@H](CCCCCC(=O)O)C(=O)O; dAsu = N[C@H](CCCCCC(=O)O)C(=O)O; NH(3-hydroxypropyl) = OCCCN*; Suc = O=C(CCC(=O)[*:2])[*:1]; Leu(ol) = CC(C)C[C@H](N)CO; X1 = NS(=O)(=O)CCN*; Ava = NCCCCC(=O)O; βAla = NCCC(=O)O

Regarding `CC[C@H](C)[C@H](NC(=O)[C@H](CCC(=O)O)NC(=O)[C@H](CCC(=O)O)NC(=O)[C@H](Cc1ccccc1)NC(=O)[C@H](CC(=O)O)NC(=O)CN)C(=O)N1CCC[C@H]1C(=O)N[C@@H](Cc1ccc(O)cc1)C(=O)N[C@@H](Cc1ccc(OS(=O)(=O)O)cc1)C(=O)N[C@@H](Cc1ccc(OS(=O)(=O)O)cc1)C(=O)N[C@@H](CC(C)C)C(=O)N[C@@H](CCC(N)=O)C(=O)O` (single isomer, unassigned) [Sulfated form of (B) peak 1, Gly--Asp--Phe--Glu--Glu--Ile--Pro--Tyr--Tyr(SO3 H)--Tyr(SO3 H)--Leu--Gln], the IC50 is 0.291 µM.
For `CC[C@H](C)[C@H](NC(=O)[C@H](CCC(=O)O)NC(=O)[C@H](CCC(=O)O)NC(=O)[C@H](Cc1ccccc1)NC(=O)[C@H](CC(=O)O)NC(=O)CN)C(=O)N1CCC[C@H]1C(=O)N[C@@H](Cc1ccc(O)cc1)C(=O)N[C@@H](Cc1ccc(OS(=O)(=O)O)cc1)C(=O)N[C@@H](Cc1ccc(O)cc1)C(=O)N[C@@H](CC(C)C)C(=O)N[C@@H](CCC(N)=O)C(=O)O` (single isomer, unassigned) [Sulfated form of (B) peak 2, Gly--Asp--Phe--Glu--Glu--Ile--Pro--Tyr--Tyr(SO3 H)--Tyr--Leu--Gln], the IC50 is 0.63 µM.
With `CC[C@H](C)[C@H](NC(=O)[C@H](CCC(=O)O)NC(=O)[C@H](CCC(=O)O)NC(=O)[C@H](Cc1ccccc1)NC(=O)[C@H](CC(=O)O)NC(=O)CN)C(=O)N1CCC[C@H]1C(=O)N[C@@H](Cc1ccc(O)cc1)C(=O)N[C@@H](Cc1ccc(O)cc1)C(=O)N[C@@H](Cc1ccc(OS(=O)(=O)O)cc1)C(=O)N[C@@H](CC(C)C)C(=O)N[C@@H](CCC(N)=O)C(=O)O` (single isomer, unassigned) [Sulfated form of (B) peak 3, Gly--Asp--Phe--Glu--Glu--Ile--Pro--Tyr--Tyr--Tyr(SO3 H)--Leu--Gln], the IC50 was 2.49 µM.
Take `CC[C@H](C)[C@H](NC(=O)[C@@H]1CCCN1C(=O)[C@H](CCC(=O)O)NC(=O)[C@H](Cc1ccccc1)NC(=O)[C@H](CC(=O)O)NC(=O)CNC(=O)CCC(=O)O)C(=O)N1CCC[C@H]1C(=O)N[C@@H](CCC(=O)O)C(=O)N[C@@H](Cc1ccc(O)cc1)C(=O)N[C@@H](Cc1ccc(O)cc1)C(=O)N[C@@H](CC(C)C)C(=O)N[C@@H](CCC(N)=O)C(=O)O` [(C)] (Suc-GDFEPIPEYYLQ-OH): the Potency is reported as 1.76 and the IC50 is 2.39 µM.
As to `CC[C@H](C)[C@H](NC(=O)[C@@H]1CCCN1C(=O)[C@H](CCC(=O)O)NC(=O)[C@H](Cc1ccccc1)NC(=O)CCC(=O)O)C(=O)N1CCC[C@H]1C(=O)N[C@@H](CCC(=O)O)C(=O)N[C@@H](Cc1ccc(O)cc1)C(=O)N[C@@H](Cc1ccc(O)cc1)C(=O)O` [(I)] (Suc-FEPIPEYY-OH), the Potency is on record as 0.83 and the IC50 is 17.3 µM.
The like results for `CC[C@H](C)[C@H](NC(=O)[C@@H]1CCCN1C(=O)[C@H](CCC(=O)O)NC(=O)[C@H](Cc1ccccc1)NC(=O)CCC(=O)O)C(=O)N1CCC[C@H]1C(=O)N[C@@H](CCC(=O)O)C(=O)N[C@@H](Cc1ccc(O)cc1)C(=O)N[C@@H](Cc1ccc(O)cc1)C(N)=O` [(J)] (Suc-FEPIPEYY-NH2) were, in that order, 0.07 and 85.1 µM.
Turning to `CC[C@H](C)[C@H](NC(=O)[C@@H]1CCCN1C(=O)[C@H](CCC(=O)O)NC(=O)[C@H](Cc1ccccc1)NC(=O)CCC(=O)O)C(=O)N1CCC[C@H]1C(=O)N[C@@H](CCC(=O)O)C(=O)N[C@@H](Cc1ccc(O)cc1)C(=O)N[C@@H](Cc1ccc(O)cc1)C(=O)NCCC(=O)O` [(K)] (Suc-FEPIPEYY[βAla]-OH), the IC50 is 24.6 µM.
On the same count and under the same terms, the same measure for `CC[C@H](C)[C@H](NC(=O)[C@@H]1CCCN1C(=O)[C@H](CCC(=O)O)NC(=O)[C@H](Cc1ccccc1)NC(=O)CCC(=O)O)C(=O)N1CCC[C@H]1C(=O)N[C@@H](CCC(=O)O)C(=O)N[C@@H](Cc1ccc(O)cc1)C(=O)N[C@@H](Cc1ccc(O)cc1)C(=O)NCCCCC(=O)O` [(L)] (Suc-FEPIPEYY[Ava]-OH): 12.4 µM.
Take `CC[C@H](C)[C@H](NC(=O)[C@@H]1CCCN1C(=O)[C@H](CCC(=O)O)NC(=O)[C@H](Cc1ccccc1)NC(=O)CCC(=O)O)C(=O)N1CCC[C@H]1C(=O)N[C@@H](CCC(=O)O)C(=O)N[C@@H](Cc1ccc(O)cc1)C(=O)N[C@@H](Cc1ccc(O)cc1)C(=O)NCCCO` [(N)] (Suc-FEPIPEYY-{NH(3-hydroxypropyl)}): the IC50 is 84.9 µM.
The same measure, in the same setting: with `CC[C@H](C)[C@H](NC(=O)[C@@H]1CCCN1C(=O)[C@H](CCC(=O)O)NC(=O)[C@H](Cc1ccccc1)NC(=O)CCC(=O)O)C(=O)N1CCC[C@H]1C(=O)N[C@@H](CCC(=O)O)C(=O)N[C@@H](Cc1ccc(O)cc1)C(=O)N[C@@H](Cc1ccc(O)cc1)C(=O)N[C@@H](CCCCCC(=O)OC)C(=O)OC` [(O)] (Suc-FEPIPEYY[Asu](OMe)-OMe) the figure was 26 µM.
Regarding `CC[C@H](C)[C@H](NC(=O)[C@@H]1CCCN1C(=O)[C@H](CCC(=O)O)NC(=O)[C@H](Cc1ccccc1)NC(=O)CCC(=O)O)C(=O)N1CCC[C@H]1C(=O)N[C@@H](CCC(=O)O)C(=O)N[C@@H](Cc1ccc(O)cc1)C(=O)N[C@@H](Cc1ccc(O)cc1)C(=O)N[C@H](CO)CC(C)C` [(P)] (Suc-FEPIPEYY[Leu(ol)]), the IC50 is 82.7 µM.
As to `CCNC(=O)[C@H](CC(C)C)NC(=O)[C@H](Cc1ccc(O)cc1)NC(=O)[C@H](Cc1ccc(O)cc1)NC(=O)[C@H](CCC(=O)O)NC(=O)[C@@H]1CCCN1C(=O)[C@@H](NC(=O)[C@@H]1CCCN1C(=O)[C@H](CCC(=O)O)NC(=O)[C@H](Cc1ccccc1)NC(=O)CCC(=O)O)[C@@H](C)CC` [(R)] (Suc-FEPIPEYYL-NHEt), the Potency is on record as 0.18 and the IC50 is 27.8 µM.
Regarding `CC[C@H](C)[C@H](NC(=O)[C@@H]1CCCN1C(=O)[C@H](CCC(=O)O)NC(=O)[C@H](Cc1ccccc1)NC(=O)CCC(=O)O)C(=O)N1CCC[C@H]1C(=O)N[C@@H](CCC(=O)O)C(=O)N[C@@H](Cc1ccc(O)cc1)C(=O)N[C@@H](Cc1ccc(O)cc1)C(=O)N[C@@H](CC(C)C)C(=O)NCCS(N)(=O)=O` [(S)] (Suc-FEPIPEYYL-X1), the IC50 is 72.4 µM.
With `CC[C@H](C)[C@H](NC(=O)[C@@H]1CCCN1C(=O)[C@H](CCC(=O)O)NC(=O)[C@H](Cc1ccccc1)NC(=O)CCC(=O)O)C(=O)N1CCC[C@H]1C(=O)N[C@@H](CCC(=O)O)C(=O)N[C@@H](Cc1ccc(O)cc1)C(=O)N[C@@H](Cc1ccc(O)cc1)C(=O)N[C@@H](CC(C)C)C(=O)N[C@H](CCCCCC(=O)OC)C(=O)OC` [(U)] (Suc-FEPIPEYYL[dAsu](OMe)-OMe), the IC50 is 32.3 µM.
`CC[C@H](C)[C@H](NC(=O)[C@@H]1CCCN1C(=O)[C@H](CCC(=O)O)NC(=O)[C@H](Cc1ccccc1)NC(=O)CCC(=O)O)C(=O)N1CCC[C@H]1C(=O)N[C@@H](CCC(=O)O)C(=O)N[C@@H](Cc1ccc(O)cc1)C(=O)N[C@@H](Cc1ccc(O)cc1)C(=O)N[C@@H](CC(C)C)C(=O)N[C@@H](CCCCCC(=O)OC)C(=O)OC` [(V)] (Suc-FEPIPEYYL[Asu](OMe)-OMe): the IC50 is 20.7 µM.
As for `CC[C@H](C)[C@H](NC(=O)[C@@H]1CCCN1C(=O)[C@H](CCC(=O)O)NC(=O)[C@H](Cc1ccccc1)NC(=O)CCC(=O)O)C(=O)N1CCC[C@H]1C(=O)N[C@@H](CCC(=O)O)C(=O)N[C@@H](Cc1ccc(O)cc1)C(=O)N[C@@H](Cc1ccc(O)cc1)C(=O)N[C@@H](CC(C)C)C(=O)N[C@H](CCCCCC(N)=O)C(N)=O` [(W)] (Suc-FEPIPEYYL[dAsu](NH2)-NH2), the IC50 was 24.3 µM.
In the case of `CC[C@H](C)[C@H](NC(=O)[C@@H]1CCCN1C(=O)[C@H](CCC(=O)O)NC(=O)[C@H](Cc1ccccc1)NC(=O)CCC(=O)O)C(=O)N1CCC[C@H]1C(=O)N[C@@H](CCC(=O)O)C(=O)N[C@@H](Cc1ccc(O)cc1)C(=O)N[C@@H](Cc1ccc(O)cc1)C(=O)N[C@@H](CC(C)C)C(=O)NP(=O)(O)O` [(Y)] (Suc-FEPIPEYY-X2), the IC50 was 114 µM.
On the same count and under the same terms, with `CC[C@H](C)[C@H](NC(=O)[C@H](CCC(=O)O)NC(=O)[C@H](CCC(=O)O)NC(=O)[C@H](Cc1ccccc1)NC(=O)[C@H](CC(=O)O)NC(=O)CN)C(=O)N1CCC[C@H]1C(=O)N[C@@H](CCC(=O)O)C(=O)N[C@@H](Cc1ccc(O)cc1)C(=O)N[C@@H](Cc1ccc(OS(=O)(=O)O)cc1)C(=O)N[C@@H](CC(C)C)C(=O)N[C@@H](CCC(N)=O)C(=O)O` [Sulfated form of (A), Gly--Asp--Phe--Glu--Glu--Ile--Pro--Glu--Tyr--Tyr(SO3 H)--Leu--Gln] (H-GDFEEIPEY[sY]LQ-OH) the figure was 2.15 µM.
In the case of `CC[C@H](C)[C@H](NC(=O)[C@@H]1CCCN1C(=O)[C@H](CCC(=O)O)NC(=O)[C@H](Cc1ccccc1)NC(=O)[C@H](CC(=O)O)NC(=O)CNC(=O)CCC(=O)O)C(=O)N1CCC[C@H]1C(=O)N[C@@H](CCC(=O)O)C(=O)N[C@@H](Cc1ccc(OS(=O)(=O)O)cc1)C(=O)N[C@@H](Cc1ccc(OS(=O)(=O)O)cc1)C(=O)N[C@@H](CC(C)C)C(=O)N[C@@H](CCC(N)=O)C(N)=O` [Sulfated form of (D), Suc--Gly--Asp--Phe--Glu--Pro--Ile--Pro--Glu--Tyr(SO3 H)--Tyr(SO3 H)--Leu--Gln--NH2] (Suc-GDFEPIPE[sY][sY]LQ-NH2), the Potency is listed as 57.07 and the IC50 is 0.0669 µM.
